Assay results: ChEMBL document CHEMBL5465560, “Selectivity Literature for EUbOPEN Chemogenomic Library” (2024)

Columns and labels:
Conditions in all cases: at 10 µM
[1] = target: T1, Muscle, skeletal receptor tyrosine-protein kinase (Homo sapiens) (UniProt O15146); assay: Selectivity interaction (KinomeScan (DiscoverX)) EUB0000655a MUSK
T1 sequence (whole entry): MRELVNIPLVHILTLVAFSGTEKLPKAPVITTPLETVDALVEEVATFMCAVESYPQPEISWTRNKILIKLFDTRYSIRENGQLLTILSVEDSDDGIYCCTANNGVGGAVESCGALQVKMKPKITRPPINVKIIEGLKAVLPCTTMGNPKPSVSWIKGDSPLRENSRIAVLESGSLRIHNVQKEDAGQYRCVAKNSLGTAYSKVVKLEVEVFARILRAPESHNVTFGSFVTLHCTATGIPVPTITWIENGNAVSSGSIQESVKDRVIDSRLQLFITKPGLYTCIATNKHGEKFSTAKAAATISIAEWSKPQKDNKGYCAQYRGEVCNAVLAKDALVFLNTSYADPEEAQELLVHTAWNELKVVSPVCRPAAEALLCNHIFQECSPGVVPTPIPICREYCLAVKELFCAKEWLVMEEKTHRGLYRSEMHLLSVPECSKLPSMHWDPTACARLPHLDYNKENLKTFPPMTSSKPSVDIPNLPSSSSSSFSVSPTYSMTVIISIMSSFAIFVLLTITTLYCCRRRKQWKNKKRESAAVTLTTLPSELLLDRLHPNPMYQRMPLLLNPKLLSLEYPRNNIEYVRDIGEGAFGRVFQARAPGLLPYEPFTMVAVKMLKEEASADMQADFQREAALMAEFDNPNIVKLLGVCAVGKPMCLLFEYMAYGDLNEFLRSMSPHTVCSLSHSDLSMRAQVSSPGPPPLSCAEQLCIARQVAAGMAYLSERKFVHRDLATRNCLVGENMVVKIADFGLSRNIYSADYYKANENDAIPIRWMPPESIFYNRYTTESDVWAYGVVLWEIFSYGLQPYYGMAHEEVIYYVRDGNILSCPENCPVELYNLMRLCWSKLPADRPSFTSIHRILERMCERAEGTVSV

[2] = target: T2, Casein kinase I isoform alpha-like (Homo sapiens) (UniProt Q8N752); assay: Selectivity interaction (KinomeScan (DiscoverX)) EUB0000666a CSNK1A1L
T2 sequence (whole entry): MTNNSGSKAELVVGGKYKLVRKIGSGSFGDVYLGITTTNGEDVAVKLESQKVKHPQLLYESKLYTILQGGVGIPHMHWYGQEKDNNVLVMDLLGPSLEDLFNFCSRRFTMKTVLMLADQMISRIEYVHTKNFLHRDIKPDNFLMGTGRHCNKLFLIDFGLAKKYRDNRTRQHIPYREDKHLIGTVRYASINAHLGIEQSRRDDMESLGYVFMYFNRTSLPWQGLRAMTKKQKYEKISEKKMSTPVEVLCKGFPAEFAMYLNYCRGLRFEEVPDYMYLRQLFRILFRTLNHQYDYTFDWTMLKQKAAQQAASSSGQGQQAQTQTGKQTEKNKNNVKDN

[3] = target: T3, Mitogen-activated protein kinase kinase kinase 19 (Homo sapiens) (UniProt Q56UN5); assay: Selectivity interaction (KinomeScan (DiscoverX)) EUB0000607a MAP3K19
T3 sequence (whole entry): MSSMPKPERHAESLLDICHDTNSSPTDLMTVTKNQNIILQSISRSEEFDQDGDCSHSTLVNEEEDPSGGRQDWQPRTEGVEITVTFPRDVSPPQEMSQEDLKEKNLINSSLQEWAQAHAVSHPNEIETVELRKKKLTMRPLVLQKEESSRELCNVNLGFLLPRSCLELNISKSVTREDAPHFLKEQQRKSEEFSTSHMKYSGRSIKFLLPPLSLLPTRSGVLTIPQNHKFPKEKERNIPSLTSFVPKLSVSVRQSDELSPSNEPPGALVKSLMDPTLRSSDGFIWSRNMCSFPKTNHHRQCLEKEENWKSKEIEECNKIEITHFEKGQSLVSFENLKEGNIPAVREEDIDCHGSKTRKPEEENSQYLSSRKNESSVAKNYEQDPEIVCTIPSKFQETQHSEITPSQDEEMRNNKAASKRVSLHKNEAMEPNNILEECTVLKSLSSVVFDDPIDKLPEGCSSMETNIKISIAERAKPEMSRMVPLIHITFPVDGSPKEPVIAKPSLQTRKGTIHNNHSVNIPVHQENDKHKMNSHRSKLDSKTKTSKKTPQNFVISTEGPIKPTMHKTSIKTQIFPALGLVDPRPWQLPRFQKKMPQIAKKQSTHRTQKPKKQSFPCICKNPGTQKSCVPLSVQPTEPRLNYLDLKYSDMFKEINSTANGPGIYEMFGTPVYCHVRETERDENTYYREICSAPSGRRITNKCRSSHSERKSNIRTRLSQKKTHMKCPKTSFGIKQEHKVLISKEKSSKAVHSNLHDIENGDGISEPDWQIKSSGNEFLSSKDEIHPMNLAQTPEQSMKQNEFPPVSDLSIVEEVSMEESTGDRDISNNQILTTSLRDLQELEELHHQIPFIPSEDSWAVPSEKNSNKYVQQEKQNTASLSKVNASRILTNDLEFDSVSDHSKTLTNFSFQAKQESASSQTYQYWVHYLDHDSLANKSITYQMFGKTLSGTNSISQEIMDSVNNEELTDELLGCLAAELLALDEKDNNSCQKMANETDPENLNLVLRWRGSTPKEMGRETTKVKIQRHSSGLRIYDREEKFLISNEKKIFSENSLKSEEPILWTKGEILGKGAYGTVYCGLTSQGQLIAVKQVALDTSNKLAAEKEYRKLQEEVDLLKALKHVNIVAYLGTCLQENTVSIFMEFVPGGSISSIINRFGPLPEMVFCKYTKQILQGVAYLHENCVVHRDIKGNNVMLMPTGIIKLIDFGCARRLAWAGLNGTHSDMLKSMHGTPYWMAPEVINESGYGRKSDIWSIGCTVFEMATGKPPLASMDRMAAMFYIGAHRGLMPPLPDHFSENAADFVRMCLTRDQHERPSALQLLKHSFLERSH

[4] = target: Ribosomal protein S6 kinase alpha-1 (Homo sapiens, UniProt Q15418); assay: Selectivity interaction (KinomeScan (DiscoverX)) EUB0000607a RPS6KA1
Sequence of Ribosomal protein S6 kinase alpha-1 (Q15418 whole entry): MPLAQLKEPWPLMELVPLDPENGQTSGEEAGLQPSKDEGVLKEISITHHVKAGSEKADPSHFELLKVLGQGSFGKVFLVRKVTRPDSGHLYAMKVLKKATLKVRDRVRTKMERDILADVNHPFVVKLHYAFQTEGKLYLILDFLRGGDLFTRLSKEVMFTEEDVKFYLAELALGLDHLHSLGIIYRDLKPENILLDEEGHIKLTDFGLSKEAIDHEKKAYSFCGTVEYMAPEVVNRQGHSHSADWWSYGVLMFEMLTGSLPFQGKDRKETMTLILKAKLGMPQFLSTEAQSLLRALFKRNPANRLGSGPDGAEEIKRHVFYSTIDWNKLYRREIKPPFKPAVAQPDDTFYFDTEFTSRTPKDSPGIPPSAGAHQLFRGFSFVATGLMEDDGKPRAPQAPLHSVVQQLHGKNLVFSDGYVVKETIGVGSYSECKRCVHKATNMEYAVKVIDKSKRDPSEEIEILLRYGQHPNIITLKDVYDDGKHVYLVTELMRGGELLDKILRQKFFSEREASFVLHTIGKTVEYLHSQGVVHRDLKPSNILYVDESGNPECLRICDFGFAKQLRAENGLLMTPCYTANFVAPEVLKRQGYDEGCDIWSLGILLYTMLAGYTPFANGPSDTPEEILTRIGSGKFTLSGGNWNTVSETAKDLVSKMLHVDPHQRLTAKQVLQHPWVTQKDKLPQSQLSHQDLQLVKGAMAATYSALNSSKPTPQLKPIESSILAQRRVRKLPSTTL

**Q.** With CN(C)CCOc1ccc(-c2nc(-c3ccncc3)c(-c3ccc4c(c3)CC/C4=N\O)[nH]2)cc1 as the compound, how does the % of control [1] read?
**A.** 98%

**Q.** Which % of control [2] does the source give for O=C(NOC[C@H](O)CO)c1ccc(F)c(F)c1Nc1ccc(I)cc1F here?
**A.** 80%

**Q.** Which results are given for CNC(=O)Nc1ccc(-c2nc(N3CC4CCC(C3)O4)c3cnn(C4CCC5(CC4)OCCO5)c3n2)cc1?
**A.** % of control [3]: 100%; % of control [4]: 91%
